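GI50 is the concentration that inhibits growth by half. At the TGI there is no net growth.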
How the values were obtained:
Test in all cases: NCI anticancer screen, dose series, 384-well format
SR leukemia = system: SR leukemia
TK-10 renal = system: TK-10 renal
OVCAR-5 ovarian = system: OVCAR-5 ovarian
LOX IMVI melanoma = system: LOX IMVI melanoma
CAKI-1 renal = system: CAKI-1 renal
MDA-MB-435 melanoma = system: MDA-MB-435 melanoma
OVCAR-4 ovarian = system: OVCAR-4 ovarian
786-0 renal = system: 786-0 renal
SK-MEL-5 melanoma = system: SK-MEL-5 melanoma
MDA-MB-468 breast = system: MDA-MB-468 breast
SNB-19 CNS = system: SNB-19 CNS
KM12 colon = system: KM12 colon
SNB-75 CNS = system: SNB-75 CNS
SW-620 colon = system: SW-620 colon
MCF7 breast = system: MCF7 breast
DU-145 prostate = system: DU-145 prostate
RPMI-8226 leukemia = system: RPMI-8226 leukemia
HT29 colon = system: HT29 colon
HCC-2998 colon = system: HCC-2998 colon
SF-295 CNS = system: SF-295 CNS
MALME-3M melanoma = system: MALME-3M melanoma
SK-MEL-2 melanoma = system: SK-MEL-2 melanoma
EKVX NSCLC = system: EKVX NSCLC
SK-MEL-28 melanoma = system: SK-MEL-28 melanoma
RXF 393 renal = system: RXF 393 renal
OVCAR-8 ovarian = system: OVCAR-8 ovarian
NCI-H226 lung = system: NCI-H226 lung
UO-31 renal = system: UO-31 renal
HOP-92 NSCLC = system: HOP-92 NSCLC
ACHN renal = system: ACHN renal
NCI-H522 lung = system: NCI-H522 lung
MOLT-4 leukemia = system: MOLT-4 leukemia
NCI-H23 lung = system: NCI-H23 lung
HOP-62 NSCLC = system: HOP-62 NSCLC
SF-539 CNS = system: SF-539 CNS
U251 glioblastoma = system: U251 glioblastoma
MDA-MB-231 breast = system: MDA-MB-231 breast
BT-549 breast = system: BT-549 breast
NCI-H322M lung = system: NCI-H322M lung
NCI-H460 NSCLC = system: NCI-H460 NSCLC
HCT-15 colon = system: HCT-15 colon
SK-OV-3 ovarian = system: SK-OV-3 ovarian
CCRF-CEM leukemia = system: CCRF-CEM leukemia
SN12C renal = system: SN12C renal
A549 NSCLC = system: A549 NSCLC
HS 578T breast = system: HS 578T breast
M14 melanoma = system: M14 melanoma
HL-60(TB) leukemia = system: HL-60(TB) leukemia
OVCAR-3 ovarian = system: OVCAR-3 ovarian
IGROV1 ovarian = system: IGROV1 ovarian
SF-268 CNS = system: SF-268 CNS
COLO 205 colon = system: COLO 205 colon
HCT-116 colon = system: HCT-116 colon
UACC-62 melanoma = system: UACC-62 melanoma
T-47D breast = system: T-47D breast
K-562 leukemia = system: K-562 leukemia
PC-3 prostate = system: PC-3 prostate
A498 renal = system: A498 renal
NCI/ADR-RES ovarian = system: NCI/ADR-RES ovarian
UACC-257 melanoma = system: UACC-257 melanoma

`Cn1cc(-c2ccc(-c3ccc(C4=NC5(CC5)C(=O)N4C[C@@H]4CCN(C(=O)C5CC5)C4)cc3)cc2)cn1` was tested, and the GI50 (SR leukemia) was 0.0145 µM, the TGI (SR leukemia) was 0.0828 µM and the GI50 (TK-10 renal) was 27.5 µM. It also gave a TGI (TK-10 renal) of over 100 µM, a GI50 (OVCAR-5 ovarian) of 23.4 µM and a TGI (OVCAR-5 ovarian) of over 100 µM. It also gave a GI50 (LOX IMVI melanoma) of 2.48 µM, a TGI (LOX IMVI melanoma) of 14 µM and a GI50 (CAKI-1 renal) of 1.99 µM. For the same molecule, the GI50 (MDA-MB-435 melanoma) was 16.1 µM, the TGI (MDA-MB-435 melanoma) was 41.4 µM and the GI50 (OVCAR-4 ovarian) was 8.64 µM. For the same molecule, the TGI (OVCAR-4 ovarian) was 59.1 µM, the GI50 ([…]-0 renal) was 12.8 µM and the TGI (786-0 renal) was 31.8 µM. For the same molecule, the GI50 (SK-MEL-5 melanoma) was 15.5 µM, the TGI (SK-MEL-5 melanoma) was 37 µM and the GI50 (MDA-MB-468 breast) was 15.8 µM. It also gave a TGI (MDA-MB-468 breast) of 38.4 µM, a GI50 (SNB-19 CNS) of 26.4 µM and a TGI (SNB-19 CNS) of over 90.1 µM. It also gave a GI50 (KM12 colon) of 6.95 µM, a TGI (KM12 colon) of over 100 µM and a GI50 (SNB-75 CNS) of 21.5 µM. For the same molecule, the TGI (SNB-75 CNS) was over 87.7 µM, the GI50 (SW-620 colon) was 19.4 µM and the TGI (SW-620 colon) was over 67.9 µM. It also gave a GI50 (MCF7 breast) of 3.21 µM, a TGI (MCF7 breast) of over 100 µM and a GI50 (DU-145 prostate) of 14.6 µM. The TGI (DU-145 prostate) was 59.6 µM, the TGI (RPMI-8226 leukemia) was 9.91 µM and the GI50 (HT29 colon) was 28.1 µM. It also gave a TGI (HT29 colon) of over 100 µM, a GI50 (HCC-2998 colon) of 23.7 µM and a TGI (HCC-2998 colon) of over 79.9 µM. For the same molecule, the GI50 (SF-295 CNS) was 14.3 µM, the TGI (SF-295 CNS) was over 81.6 µM and the GI50 (MALME-3M melanoma) was 23 µM. It also gave a TGI (MALME-3M melanoma) of 65.1 µM, a GI50 (SK-MEL-2 melanoma) of 21.9 µM and a TGI (SK-MEL-2 melanoma) of 41.8 µM. The GI50 (EKVX NSCLC) was 33.3 µM, the TGI (EKVX NSCLC) was 98.2 µM and the GI50 (SK-MEL-28 melanoma) was 27.8 µM. For the same molecule, the TGI (SK-MEL-28 melanoma) was over 74.8 µM, the GI50 (RXF 393 renal) was 14.4 µM and the TGI (RXF 393 renal) was 40.7 µM. For the same molecule, the GI50 (OVCAR-8 ovarian) was 13.4 µM, the TGI (OVCAR-8 ovarian) was 41.6 µM and the GI50 (NCI-H226 lung) was 19 µM. It also gave a TGI (NCI-H226 lung) of 97.2 µM, a GI50 (UO-31 renal) of 1.06 µM and a TGI (UO-31 renal) of 2.43 µM. For the same molecule, the GI50 (HOP-92 NSCLC) was 21.2 µM, the TGI (HOP-92 NSCLC) was 59.1 µM and the GI50 (ACHN renal) was 18.7 µM. The TGI (ACHN renal) was over 90.1 µM, the GI50 (NCI-H522 lung) was 12.6 µM and the TGI (NCI-H522 lung) was 29.6 µM. It also gave a GI50 (MOLT-4 leukemia) of 11 µM, a TGI (MOLT-4 leukemia) of 23.2 µM and a GI50 (NCI-H23 lung) of 14.9 µM. It also gave a TGI (NCI-H23 lung) of 37.7 µM, a GI50 (HOP-62 NSCLC) of 8.82 µM and a TGI (HOP-62 NSCLC) of 26.4 µM. It also gave a GI50 (SF-539 CNS) of 13.7 µM, a TGI (SF-539 CNS) of over 56.4 µM and a GI50 (U251 glioblastoma) of 10.2 µM. The TGI (U251 glioblastoma) was 38.1 µM, the GI50 (MDA-MB-231 breast) was 12.3 µM and the TGI (MDA-MB-231 breast) was 56.1 µM. It also gave a GI50 (BT-549 breast) of 0.827 µM, a TGI (BT-549 breast) of 30.1 µM and a GI50 (NCI-H322M lung) of 20 µM. It also gave a TGI (NCI-H322M lung) of 75.5 µM, a GI50 (NCI-H460 NSCLC) of 1.21 µM and a TGI (NCI-H460 NSCLC) of 2.97 µM. The GI50 (HCT-15 colon) was 5.68 µM, the TGI (HCT-15 colon) was over 62.9 µM and the GI50 (SK-OV-3 ovarian) was 30 µM. The TGI (SK-OV-3 ovarian) was over 89.9 µM, the GI50 (CCRF-CEM leukemia) was 11.7 µM and the TGI (CCRF-CEM leukemia) was 24.3 µM. The GI50 (SN12C renal) was 17.1 µM, the TGI (SN12C renal) was 83.8 µM and the GI50 (A549 NSCLC) was 20.2 µM. The TGI (A549 NSCLC) was over 100 µM, the GI50 (HS 578T breast) was 10.5 µM and the TGI (HS 578T breast) was 39.1 µM. The GI50 (M14 melanoma) was 24.7 µM, the TGI (M14 melanoma) was over 79.5 µM and the GI50 (HL-60(TB) leukemia) was 0.0689 µM. For the same molecule, the TGI (HL-60(TB) leukemia) was 16.3 µM, the GI50 (OVCAR-3 ovarian) was 13.5 µM and the TGI (OVCAR-3 ovarian) was 31.2 µM. It also gave a GI50 (IGROV1 ovarian) of 25.6 µM, a TGI (IGROV1 ovarian) of over 100 µM and a GI50 (SF-268 CNS) of 18.4 µM. It also gave a TGI (SF-268 CNS) of over 88.4 µM, a GI50 (COLO 205 colon) of 25.7 µM and a TGI (COLO 205 colon) of over 100 µM. For the same molecule, the GI50 (HCT-116 colon) was 4.95 µM, the TGI (HCT-116 colon) was 27.6 µM and the GI50 (UACC-62 melanoma) was 8.91 µM. It also gave a TGI (UACC-62 melanoma) of 22.5 µM, a GI50 (T-47D breast) of 11.9 µM and a TGI (T-47D breast) of 43.9 µM. The GI50 (K-562 leukemia) was 6.43 µM, the TGI (K-562 leukemia) was over 95.4 µM and the GI50 (PC-3 prostate) was 20.4 µM. The TGI (PC-3 prostate) was 49 µM, the GI50 (A498 renal) was 17.6 µM and the TGI (A498 renal) was over 56.1 µM. It also gave a GI50 (NCI/ADR-RES ovarian) of 14.2 µM, a TGI (NCI/ADR-RES ovarian) of 36.2 µM and a GI50 (UACC-257 melanoma) of 38.4 µM. It also gave a TGI (UACC-257 melanoma) of over 74.7 µM.
